Experimental data taken from patent US12485121B2, “Antiviral agents for the treatment and prevention of HIV infection” (Pharmasyntez, Joint Stock Company, priority 2020, dated 2025).
Where two headings read alike, the source gives them in different places.

Tested on: HIV-1 subtype A strain 12RU 69831
Test: Inhibition of HIV-1 reproduction / protection of infected MT-4 cells (living cell concentration, p24 production)
Type: cell-based
Conditions: read-out: Activity against HIV-1 12RU 69831 strain (subtype A)
Experimental: Evaluation of HIV reproduction inhibition/protection of human cells by anti-HIV products of the present invention was conducted by measuring change in living cells concentration in experimental wells with MT-4 cells infected with HIV-1, as well as by the production of viral protein p24 with adding different concentrations of compounds according to the present invention. Antiviral activity of products against HIV-1 subtype A strain 12RU 69831 was determined, when the cell culture was infected with a constant dose of virus, corresponding to 300 CCID50.

[1] = Human immunodeficiency virus 1, MT4, MT-4 cells infected with HIV-1 at a constant virus dose of 300 CCID50

Compound	IC50 [1] [µM]	IC50 (MT-4 cells infected with HIV-1 at a constant virus dose of 300 CCID50) [µM]
Cc1cccc(C)c1Oc1nc(Nc2ccc(C#N)cc2)nc2c1CCN(Cc1ccccc1)C2 [BB0273459]	74.3	
Cc1cc(C#N)cc(C)c1Oc1nc(Nc2ccc(C#N)cc2)nc2c1CCN(C)C2 [BB0273774, 4-((2-((4-Cyanophenyl)amino)-7-methyl-5,6,7,8-tetrahydropyrido[3,4-d]pyrimidine-4-yl)oxy)-3,5-dimethylbenzonitrile]	224	
Cc1cc(C=O)cc(C)c1Oc1nc(Nc2ccc(C#N)cc2)nc2c1CCN(C)C2 [BB0273775, 4-((4-(4-Formyl-2,6-dimethylphenoxy)-7-methyl-5,6,7,8-tetrahydro[3,4-d]pyrimidine-2-yl)amino)benzonitrile]	295	
Cc1cc(C2OCCCO2)cc(C)c1Oc1nc(Nc2ccc(C#N)cc2)nc2c1CCN(C(=O)OC(C)(C)C)CC2 [BB0273892]	1220	
Cc1cc(C=O)cc(C)c1Oc1nc(Nc2ccc(C#N)cc2)nc2c1CCN(C(=O)OC(C)(C)C)CC2 [BB0273943, Tert-butyl 2-((4-cyanophenyl)amino)-4-(4-formyl-2,6-dimethylphenyoxy)-8,9-dihydro-5H-pyrimido[4,5-d]azepine-7(6H)-carboxylate]	346	
Cc1cc(C#N)cc(C)c1Oc1nc(Nc2ccc(C#N)cc2)nc2c1CN(C(=O)OC(C)(C)C)CC2 [BB0273961, Tert-butyl 4-(4-cyano-2,6-dimethylphenoxy)-2-((4-cyanophenyl)amino)-7,8-dihydropyrido[4,3-d]pyrimidine-6(5H)-carboxylate]	42.3	
Cc1cc(C#N)cc(C)c1Oc1nc(Nc2ccc(C#N)cc2)nc2c1CNCC2 [BB0273963, 4-((2-((4-Cyanophenyl)amino)-5,6,7,8-tetrahydropyrido[4,3-d]pyrimidine-4-yl)oxy)-3,5-dimethylbenzonitrile]	7.56	
Cc1cc(C#N)cc(C)c1Oc1nc(Nc2ccc(C#N)cc2)nc2c1CN(S(C)(=O)=O)CC2 [BB0273964, 4-((2-((4-Cyanophenyl)amino)-6-(methylsulfonyl)-5,6,7,8-tetrahydropyrido[4,3-d]pyrimidine-4-yl)oxy)-3,5-dimethylbenzonitrile]	0.145	
CCOC(=O)N1CCc2nc(Nc3ccc(C#N)cc3)nc(Oc3c(C)cc(C#N)cc3C)c2C1 [BB0273965, Ethyl 4-(4-cyano-2,6-dimethylphenoxy)-2-((4-cyanophenyl)amino)-7,8-dihydropyrido[4,3-d]pyrimidine-6(5H)-carboxylate]	1.73	
Cc1cc(/C=C/C(=O)O)cc(C)c1Oc1nc(Nc2ccc(C#N)cc2)nc2c1CCN(C(=O)OC(C)(C)C)CC2 [BB0273969, (E)-3-(4-((7-(Tert-butoxycarbonyl)-2-((4-cyanophenyl)amino)-6,7,8,9-tetrahydro-5H-pyrimido[4,5-d]azepine-4-yl)oxy)-3,5-dimethylphenyl)acrylic acid]	10700	
Cc1cc(C#N)cc(C)c1Oc1nc(Nc2ccc(C#N)cc2)nc2c1CCN(C(=O)OC(C)(C)C)CC2 [BB0273972, Tert-butyl 4-(4-cyano-2,6-dimethylphenoxy)-2-((4-cyanophenyl)amino)-8,9-dihydro-5H-pyrimido[4,5-d]azepine-7(6H)-carboxylate]	117	
Cc1cc(C#N)cc(C)c1Oc1nc(Nc2ccc(C#N)cc2)nc2c1CCNCC2 [BB0273976, 4-((2-((4-Cyanophenyl)amino)-6,7,8,9-tetrahydro-5H-pyrimido[4,5-d]azepine-4-yl)oxy)-3,5-dimethylbenzonitrile]		0.00583
Cc1cc(/C=C/C#N)cc(C)c1Oc1nc(Nc2ccc(C#N)cc2)nc2c1CCN(C(=O)OC(C)(C)C)CC2 [BB0274009, Tert-butyl 2-((4-cyanophenyl)amino)-4-(4-(2-cyanovinyl)-2,6-dimethylphenoxy)-8,9-dihydro-5H-pyrimido[4,5-d]azepine-7(6H)-carboxylate]	291	
Cc1cc(C#N)cc(C)c1Oc1nc(Nc2ccc(C#N)cc2)nc2c1CCN(C(=O)c1ccccn1)CC2 [BB0274010, 4-((2-((4-Cyanophenyl)amino)-7-picolynoyl-6,7,8,9-tetrahydro-5H-pyrimido[4,5-d]azepine-4-yl)oxy)-3,5-dimethylbenzonitrile]	0.062	
Cc1cc(C#N)cc(C)c1Oc1nc(Nc2ccc(C#N)cc2)nc2c1CCN(C(=O)c1ccncc1)CC2 [BB0274011, 4-((2-((4-Cyanophenyl)amino)-7-isonicotinoyl-6,7,8,9-tetrahydro-5H-pyrimido[4,5-d]azepine-4-yl)oxy)-3,5-dimethylbenzonitrile]	27.1	
Cc1cc(C#N)cc(C)c1Oc1nc(Nc2ccc(C#N)cc2)nc2c1CCN(C(=O)c1cccnc1)CC2 [BB0274012, 4-((2-((4-Cyanophenyl)amino)-7-nicotinoyl-6,7,8,9-tetrahydro-5H-pyrimido[4,5-d]azepine-4-yl)oxy)-3,5-dimethylbenzonitrile]	5.81	
Cc1cc(C#N)cc(C)c1Oc1nc(Nc2ccc(C#N)cc2)nc2c1CCN(Cc1ccccn1)CC2 [BB0274014, 4-((2-((4-Cyanophenyl)amino)-7-(pyridine-2-ylmethyl)-6,7,8,9-tetrahydro-5H-pyrimido[4,5-d]azepine-4-yl)oxy)-3,5-dimethylbenzonitrile]	5.98	
Cc1cc(C#N)cc(C)c1Oc1nc(Nc2ccc(C#N)cc2)nc2c1CCN(Cc1cccnc1)CC2 [BB0274015, 4-((2-((4-Cyanophenyl)amino)-7-(pyridine-3-ylmethyl)-6,7,8,9-tetrahydro-5H-pyrimido[4,5-d]azepine-4-yl)oxy)-3,5-dimethylbenzonitrile]	29.9	
Cc1cc(C#N)cc(C)c1Oc1nc(Nc2ccc(C#N)cc2)nc2c1CCN(Cc1ccncc1)CC2 [BB0274016, 4-((2-((4-Cyanophenyl)amino)-7-(pyridine-4-ylmethyl)-6,7,8,9-tetrahydro-5H-pyrimido[4,5-d]azepine-4-yl)oxy)-3,5-dimethylbenzonitrile]	4880	
Cc1cc(C#N)cc(C)c1Oc1nc(Nc2ccc(C#N)cc2)nc2c1CCNCC2 [BB0274021, 4-((2-((4-Cyanophenyl)amino)-6,7,8,9-tetrahydro-5H-pyrimido[4,5-d]azepine-4-yl)oxy)-3,5-dimethylbenzonitrile]	0.0102	
Cc1cc(C#N)cc(C)c1Oc1nc(Nc2ccc(C#N)cc2)nc2c1CCN(C(=O)C1CCN(C(=O)OC(C)(C)C)CC1)CC2 [BB0274025, Tert-butyl 4-(4-(4-cyano-2,6-dimethylphenoxy)-2-((4-cyanophenyl)amino)-6,7,8,9-tetrahydro-5H-pyrimido[4,5-d]asein-7-carbonyl)piperidine-1-carboxylate]	3220	
Cc1cc(C#N)cc(C)c1Oc1nc(Nc2ccc(C#N)cc2)nc2c1CCN(C(=O)C1CCNCC1)CC2 [BB0274026, 4-((2-((4-Cyanophenyl)amino)-7-(piperidine-4-carbonyl)-6,7,8,9-tetrahydro-5H-pyrimido[4,5-d]azepine-4-yl)oxy)-3,5-dimethylbenzonitrile]	0.364	
Cc1cc(C#N)cc(C)c1Oc1nc(Nc2ccc(C#N)cc2)nc2c1CCN(C1CCN(C(=O)OC(C)(C)C)CC1)CC2 [BB0274027, Tert-butyl 4-(4-(4-cyano-2,6-dimethylphenoxy)-2-((4-cyanophenyl)amino)-8,9-dihydro-5H-pyrimido[4,5-d]azepine-7(6H)-yl)piperidine-1-carboxylate]	37	
Cc1cc(C#N)cc(C)c1Oc1nc(Nc2ccc(C#N)cc2)nc2c1CCN(C1CCNCC1)CC2 [BB0274028, 4-((2-((4-Cyanophenyl)amino)-7-(piperidine-4-yl)-6,7,8,9-tetrahydro-5H-pyrimido[4,5-d]azepine-4-yl)oxy)-3,5-dimethylbenzonitrile]	16.2	
Cc1cc(C#N)cc(C)c1Oc1nc(Nc2ccc(C#N)cc2)nc2c1CN(C(=O)CN)CC2 [BB0274051, 4-((6-(2-Aminoacetyl)-2-((4-cyanophenyl)amino)-5,6,7,8-tetrahydropyrido[4,3-d]pyrimidine-4-yl)oxy)-3,5-dimethylbenzonitrile]	0.00552	
Cc1cc(C#N)cc(C)c1Oc1nc(Nc2ccc(C#N)cc2)nc2c1CN(C(=O)CN1CC(O)C1)CC2 [BB0274052, 4-((2-((4-Cyanophenyl)amino)-6-(2-(3-hydroxyazetidine-1-yl)acetyl)-5,6,7,8-tetrahydropyrido[4,3-d]pyrimidine-4-yl)oxy)-3,5-dimethylbenzonitrile]	0.127	
Cc1cc(C#N)cc(C)c1Oc1nc(Nc2ccc(C#N)cc2)nc2c1CCN(C(=O)C1CCCN1C(=O)OC(C)(C)C)CC2 (stereo not drawn) [BB0274063, Tert-butyl 2-(4-(4-cyano-2,6-dimethylphenoxy)-2-((cyanophenyl)amino)-6,7,8,9-tetrahydro-5H-pyrimido[4,5-d]azepine-7-carbonyl)pyrrolidine-1-carboxylate]	230	
Cc1cc(C#N)cc(C)c1Oc1nc(Nc2ccc(C#N)cc2)nc2c1CCN(C(=O)[C@H]1CCCN1C(=O)OC(C)(C)C)CC2 [BB0274064, (R)-Tert-butyl 2-(4-(4-cyano-2,6-dimethylphenoxy)-2-((cyanophenyl)amino)-6,7,8,9-tetrahydro-5H-pyrimido[4,5-d]azepine-7-carbonyl)pyrrolidine-1-carboxylate]	493	
Cc1cc(C#N)cc(C)c1Oc1nc(Nc2ccc(C#N)cc2)nc2c1CCN(C(=O)[C@@H]1CCCN1C(=O)OC(C)(C)C)CC2 [BB0274065, (S)-Tert-butyl 2-(4-(4-cyano-2,6-dimethylphenoxy)-2-((cyanophenyl)amino)-6,7,8,9-tetrahydro-5H-pyrimido[4,5-d]azepine-7-carbonyl)pyrrolidine-1-carboxylate]	41.1	
Cc1cc(C#N)cc(C)c1Oc1nc(Nc2ccc(C#N)cc2)nc2c1CCN(C1CCOCC1)CC2 [BB0274072, 4-((2-((4-Cyanophenyl)amino)-7-(tetrahydro-2H-pyran-4-yl)-6,7,8,9-tetrahydro-5H-pyrimido[4,5-d]azepine-4-yl)oxy)-3,5-dimethylbenzonitrile]	4.07	
